# Measured values published in patent EP4741395A1, “NOVEL COMPOUND SENSITIVE TO NITROGEN MONOXIDE AND PHARMACEUTICAL COMPOSITION COMPRISING SAME” (Omniamed Co. Ltd, priority 2023, dated 2025).
# Columns and labels:
# JAK 3 = target: T1, JAK 3 (Homo sapiens, UniProt P52333); assay: JAK Human TK kinase enzymatic radiometric assay (Eurofins), JAK 3; format: biochemical; set-up: unit not given here; conditions: value close to 100 indicates low JAK activity of the compound
# T1 construct: purchased Eurofins Scientific (assay service)
# T1 sequence (P52333 1-1124): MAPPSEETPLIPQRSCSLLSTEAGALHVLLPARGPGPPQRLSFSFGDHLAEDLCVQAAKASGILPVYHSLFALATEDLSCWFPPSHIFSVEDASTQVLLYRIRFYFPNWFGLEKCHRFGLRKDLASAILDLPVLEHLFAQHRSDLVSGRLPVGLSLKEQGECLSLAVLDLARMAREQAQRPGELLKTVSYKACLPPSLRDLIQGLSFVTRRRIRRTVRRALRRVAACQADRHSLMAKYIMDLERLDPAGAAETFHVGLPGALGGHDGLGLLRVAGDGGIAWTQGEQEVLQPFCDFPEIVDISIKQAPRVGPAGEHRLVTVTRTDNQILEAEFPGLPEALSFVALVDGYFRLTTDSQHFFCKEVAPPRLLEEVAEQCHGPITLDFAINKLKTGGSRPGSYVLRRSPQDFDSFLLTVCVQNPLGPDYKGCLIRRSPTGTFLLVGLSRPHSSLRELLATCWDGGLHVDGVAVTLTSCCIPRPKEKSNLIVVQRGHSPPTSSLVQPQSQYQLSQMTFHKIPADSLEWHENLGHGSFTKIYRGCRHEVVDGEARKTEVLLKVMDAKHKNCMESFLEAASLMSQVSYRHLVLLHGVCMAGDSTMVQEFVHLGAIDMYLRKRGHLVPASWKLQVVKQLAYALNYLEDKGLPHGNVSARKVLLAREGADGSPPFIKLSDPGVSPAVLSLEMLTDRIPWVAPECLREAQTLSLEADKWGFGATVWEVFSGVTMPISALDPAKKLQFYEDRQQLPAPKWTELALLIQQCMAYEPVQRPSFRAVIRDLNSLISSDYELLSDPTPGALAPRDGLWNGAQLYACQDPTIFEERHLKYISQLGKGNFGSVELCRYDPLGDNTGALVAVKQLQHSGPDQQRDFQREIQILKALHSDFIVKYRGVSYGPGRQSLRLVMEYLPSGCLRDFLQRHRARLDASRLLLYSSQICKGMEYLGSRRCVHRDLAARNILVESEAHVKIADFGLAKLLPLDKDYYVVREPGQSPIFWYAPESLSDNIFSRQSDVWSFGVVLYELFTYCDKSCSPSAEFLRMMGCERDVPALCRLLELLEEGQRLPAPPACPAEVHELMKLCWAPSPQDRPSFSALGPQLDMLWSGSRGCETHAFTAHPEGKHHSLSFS
# Source text: (§1) For the compounds of the Examples, JAK activity of each of the compounds was verified using the JAK Human TK Kinase Enzymatic Radiometric Kinase Profiler Assay service provided by Eurofins Scientific.
# (§2) The activity was verified after inducing a reaction at the JAK 1, 2 and 3 active sites using radioactively labeled ATP.
# splenocytes [1] = assay: Inhibitory activity on cell proliferation in splenocytes (CCK-8 analysis); format: cell-based, C57BL/6 mouse; conditions: Mus musculus, Splenocyte, Concanavalin A 5 µg/mL, 72 hours, read-out: Inhibitory Activity on Cell Proliferation (%) (Mean±SD)
# JAK 2 = target: T2, JAK 2 (Homo sapiens, UniProt O60674); assay: JAK Human TK kinase enzymatic radiometric assay (Eurofins), JAK 2; format: biochemical; set-up: unit not given here; conditions: value close to 100 indicates low JAK activity of the compound
# T2 construct: purchased Eurofins Scientific (assay service)
# T2 sequence (O60674 whole entry): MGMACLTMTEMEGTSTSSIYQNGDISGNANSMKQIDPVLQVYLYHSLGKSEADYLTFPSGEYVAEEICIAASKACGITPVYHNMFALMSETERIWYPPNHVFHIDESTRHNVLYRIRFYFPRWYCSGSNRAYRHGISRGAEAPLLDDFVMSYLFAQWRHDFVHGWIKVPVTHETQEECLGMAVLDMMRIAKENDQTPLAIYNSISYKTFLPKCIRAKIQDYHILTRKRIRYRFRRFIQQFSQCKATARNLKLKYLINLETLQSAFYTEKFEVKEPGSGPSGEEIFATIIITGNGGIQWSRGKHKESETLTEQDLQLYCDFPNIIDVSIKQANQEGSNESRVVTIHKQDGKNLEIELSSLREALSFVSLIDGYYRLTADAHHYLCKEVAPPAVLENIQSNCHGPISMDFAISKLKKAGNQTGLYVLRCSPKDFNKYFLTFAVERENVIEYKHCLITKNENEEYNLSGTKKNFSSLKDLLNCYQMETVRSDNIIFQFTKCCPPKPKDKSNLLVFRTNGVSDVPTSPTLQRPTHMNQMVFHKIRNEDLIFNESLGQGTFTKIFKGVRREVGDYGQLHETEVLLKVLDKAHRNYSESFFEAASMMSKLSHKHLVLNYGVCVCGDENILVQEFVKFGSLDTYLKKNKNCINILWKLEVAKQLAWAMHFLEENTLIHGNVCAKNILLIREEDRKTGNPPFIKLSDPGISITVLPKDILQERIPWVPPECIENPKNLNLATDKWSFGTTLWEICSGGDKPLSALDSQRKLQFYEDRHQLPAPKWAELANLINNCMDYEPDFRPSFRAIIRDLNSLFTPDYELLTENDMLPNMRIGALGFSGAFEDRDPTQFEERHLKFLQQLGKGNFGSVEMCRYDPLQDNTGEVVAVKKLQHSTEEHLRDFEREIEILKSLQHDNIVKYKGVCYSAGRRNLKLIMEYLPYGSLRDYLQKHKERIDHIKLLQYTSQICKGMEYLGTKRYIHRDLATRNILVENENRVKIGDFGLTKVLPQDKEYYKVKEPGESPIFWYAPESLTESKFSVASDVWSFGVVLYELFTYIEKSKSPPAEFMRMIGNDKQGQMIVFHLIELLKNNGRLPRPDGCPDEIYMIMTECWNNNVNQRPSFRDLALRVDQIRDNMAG
# Source text: as §1, §2
# splenocytes [2] = assay: NO scavenging activity in Concanavalin A-treated splenocytes (Griess assay); format: cell-based, C57BL/6 mouse; conditions: Mus musculus, Splenocyte, Concanavalin A 5 µg/mL, 72 hours, read-out: NO Scavenging Activity (%) (Mean±SD)
# Procedure, shortened: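 Splenocytes from 8-week-old C57BL/6 mice at 5×10^6 cells/mL in RPMI 1640/10% FBS, stimulated with Concanavalin A (5 µg/mL) plus […] test composition added at plating. After 72 h culture, remaining NO in supernatant measured by Griess assay.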
# JAK 1 = JAK 1 (Homo sapiens, UniProt P23458); assay: JAK Human TK kinase enzymatic radiometric assay (Eurofins), JAK 1; conditions: value close to 100 indicates low JAK activity of the compound
# Chain of JAK 1 (P23458 whole entry): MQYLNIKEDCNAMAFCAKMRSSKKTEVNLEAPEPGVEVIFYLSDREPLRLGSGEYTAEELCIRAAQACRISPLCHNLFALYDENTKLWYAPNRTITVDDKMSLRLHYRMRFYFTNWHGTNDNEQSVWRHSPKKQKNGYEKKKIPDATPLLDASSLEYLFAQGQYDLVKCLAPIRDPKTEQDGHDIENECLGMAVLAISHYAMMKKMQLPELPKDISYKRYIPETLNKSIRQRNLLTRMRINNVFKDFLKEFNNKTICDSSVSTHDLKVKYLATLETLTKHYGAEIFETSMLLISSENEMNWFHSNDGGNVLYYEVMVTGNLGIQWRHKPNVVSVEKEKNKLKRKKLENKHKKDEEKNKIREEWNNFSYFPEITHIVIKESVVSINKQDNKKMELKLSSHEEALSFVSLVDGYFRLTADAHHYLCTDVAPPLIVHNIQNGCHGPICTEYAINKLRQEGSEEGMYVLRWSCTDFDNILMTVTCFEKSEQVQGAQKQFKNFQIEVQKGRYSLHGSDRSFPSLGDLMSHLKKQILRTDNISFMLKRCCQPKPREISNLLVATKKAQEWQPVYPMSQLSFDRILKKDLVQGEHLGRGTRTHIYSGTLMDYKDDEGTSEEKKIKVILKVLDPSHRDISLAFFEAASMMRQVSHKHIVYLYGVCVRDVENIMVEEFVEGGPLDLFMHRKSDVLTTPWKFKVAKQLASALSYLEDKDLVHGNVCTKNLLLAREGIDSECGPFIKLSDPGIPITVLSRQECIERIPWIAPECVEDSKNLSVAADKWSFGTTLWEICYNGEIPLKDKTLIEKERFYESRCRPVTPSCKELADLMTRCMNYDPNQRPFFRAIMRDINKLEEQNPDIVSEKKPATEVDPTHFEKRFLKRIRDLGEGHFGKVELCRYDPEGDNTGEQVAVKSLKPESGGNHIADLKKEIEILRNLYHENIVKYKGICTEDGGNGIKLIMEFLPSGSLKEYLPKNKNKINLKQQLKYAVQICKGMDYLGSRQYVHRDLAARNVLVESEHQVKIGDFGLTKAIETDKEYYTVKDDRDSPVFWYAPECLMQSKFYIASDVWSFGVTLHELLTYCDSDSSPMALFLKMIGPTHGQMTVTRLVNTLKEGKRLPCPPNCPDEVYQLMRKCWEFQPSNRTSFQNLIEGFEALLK
# IFN-γ = IFN-γ reduction activity in Concanavalin A-treated splenocytes (quantitative ELISA); format: cell-based, C57BL/6 mouse; conditions: Mus musculus, Splenocyte, Concanavalin A 5 µg/mL, 72 hours, read-out: IFN-γ Reduction Activity (%) (Mean±SD)
# Procedure, shortened: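 Splenocytes from 8-week-old C57BL/6 mice at 5×10^6 cells/mL in RPMI 1640 with 10% FBS, stimulated with Concanavalin A (5 µg/mL) plus compound added concentration-dependently. Supernatant IFN-γ measured by quantitative ELISA after 72 h.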
# Raw 264.7 cell line = assay: NO scavenging activity in LPS-treated immune cells (Griess reagent); format: cell-based; conditions: Mus musculus, RAW264.7, Raw 264.7, LPS 500 ng/mL, 24 hours, read-out: NO Scavenging Activity (%) (Mean±SD)
# [3] = Efficacy on collagen-induced rheumatoid arthritis (arthritis score); format: in vivo, DBA/1 male mice; conditions: FIG. 7
# Method: (§3) The experimental animals were 30 8-week-old DBA/1 male mice. […] The number of normal mice was set to five in order to minimize the number of experimental animals. The group administered with Compound (1) consisted of 5 to 6 mice, a minimal number required to obtain statistically meaningful data given the limited amount of the drug.
# (§4) In order to establish a rheumatoid arthritis model, 100 µL of a mixture solution in which 2 mg/mL of chick type II collagen and 1 mg/mL of Complete Freund's Adjuvant (CFA) were mixed in a ratio of 1:1 was administered intradermally to each of the mouse tails. After 19 days, 100 µL of an emulsion in which 2 mg/mL of chick type II collagen and Incomplete Freund's Adjuvant (IFA) were mixed in a ratio of 1:1 was administered intradermally to each of the mouse tails.
# The test substances of Table 23 were administered orally every day according to the drug dosing period and dosing frequency. As for the rheumatoid arthritis score (arthritis score), the score of each of the four paws was quantified according to the criteria shown in the following Table 24, and the individual scores were summed to generate the final score.
# as §3, with “31” for “30”, “(11)” for “(1)”, “5” for “5 to 6”, “drug. Each of the remaining groups consisted of 7 mice, with two extra mice added to account for experimental error.” for “drug.”
# as §4
# Oral administration was conducted daily according to the dose, dosing frequency and dosing period of Table 25. Based on the criteria shown in Table 24, rheumatoid arthritis score for the four paws were quantified and summed to generate the score.
# IL-6 (Interleukin-6) = assay: Inhibition of inflammatory cytokine secretion in LPS-treated immune cells (IL-6 sandwich ELISA); format: cell-based; conditions: Mus musculus, RAW264.7, Raw 264.7, LPS 500 ng/mL, 24 hours, read-out: IL-6 Reduction Activity (%) (Mean±SD)
# Method: Raw 264.7 cell line was seeded in a 48-well plate at a density of 8×10^4 cells/well, and cultured at 37°C in a DMEM medium including 10% FBS, 100 U/mL of penicillin and 100 µg/mL of streptomycin.
# The medium was cultured overnight, and then replaced with a fresh medium including 10 µM of the pharmaceutical composition sensitive to nitrogen monoxide including the compound of each of Examples 1 and 11 to 13 and 500 ng/mL of LPS, and the fresh medium was cultured again for another 24 hours.
# Lastly, the supernatant was collected, and then the level of IL-6 (Interleukin-6) expression was analyzed using a Sandwich enzyme-linked immunosorbent assay (ELISA). Specifically, a standard solution and 50 µL of the diluted supernatant were introduced to each well of a well plate coated with an antibody specific to IL-6, and after binding IL-6 to the immobilized antibody, the well was washed with a washing buffer, followed by a reaction with HRP as a secondary antibody for 30 minutes at room temperature. The well was washed three times with a washing buffer, then color was developed using TMB (3,3', 5,5'-tetramethyl benzidine) as a substrate, and the reaction was stopped using 1 M sulfuric acid to measure the degree of color development at an absorbance of 450 nm.
JAK 3 Activity (JAK 3; 0.1 nM),JAK 3 Activity (JAK 3; 1 nM),JAK 3 Activity (JAK 3; 10 nM),JAK 3 Activity (JAK 3; 100 nM),JAK 2 Activity (JAK 2; 0.1 nM),JAK 2 Activity (JAK 2; 1 nM),JAK 2 Activity (JAK 2; 10 nM),JAK 2 Activity (JAK 2; 100 nM),JAK 1 Activity (JAK 1; 0.1 nM),JAK 1 Activity (JAK 1; 1 nM),JAK 1 Activity (JAK 1; 10 nM),JAK 1 Activity (JAK 1; 100 nM),Structure (SMILES),inhibition at 10 µM (splenocytes [1]) [%],activity at 10 µM (splenocytes [2]) [%],activity at 10 µM (IFN-γ) [%],activity at 10 µM (Raw 264.7 cell line) [%],"rheumatoid arthritis-alleviating efficacy compared with tofacitinib ([3]; 20 mg/kg oral once daily (QD) vs tofacitinib 10 mg/kg BID, entire 40-day period)","rheumatoid arthritis-alleviating efficacy (arthritis score), statistics ([3]; 20 mg/kg oral once daily (QD))",activity at 10 µM (IL-6 (Interleukin-6)) [%]
103,103,98,94,91,99,89,98,108,103,105,101,"C[C@@H]1CCN(C(=O)CC#N)C[C@@H]1N(C)c1ncnc2c1ccn2C(=O)N(C(=O)Nc1ccccc1N)c1ccccc1N [Example 11, N-(2-aminophenyl)-N-((2-aminophenyl)carbamoyl)-4-(((3R,4R)-1-(2-cyanoacetyl)-4-methylpiperidin-3-yl)(methyl)amino)-7H-pyrrolo[2,3-d]pyrimidine-7-carboxamide]",49.7 ± 3.78,67.7 ± 0.84,57.6 ± 15.5,48.7 ± 0.01,alleviating efficacy comparable to that of tofacitinib,no statistical differences were verified,–
114,107,111,88,108,111,102,92,109,110,103,81,"Cc1ccc(NC(=O)N(C(=O)n2ccc3c(N(C)[C@H]4CN(C(=O)CC#N)CC[C@H]4C)ncnc32)c2ccc(C)cc2N)c(N)c1 [Example 12, N-(2-amino-4-methylphenyl)-N-((2-amino-4-methylphenyl)carbamoyl)-4-(((3R,4R)-1-(2-cyanoacetyl)-4-methylpiperidin-3-yl) (methyl)amino)-7H-pyrrolo[2,3-d]pyrimidine-7-carboxamide]",64 ± 6.17,64.6 ± 3.65,97 ± 0.05,31.7 ± 0.15,–,–,61.7 ± 1.85
113,109,112,92,120,107,102,104,110,113,106,89,"COc1ccc(NC(=O)N(C(=O)n2ccc3c(N(C)[C@H]4CN(C(=O)CC#N)CC[C@H]4C)ncnc32)c2ccc(OC)cc2N)c(N)c1 [Example 13, N-(2-amino-4-methoxyphenyl)-N-((2-amino-4-methoxyphenyl)carbamoyl)-4-(((3R,4R)-1-(2-cyanoacetyl)-4-methylpiperidin-3-yl) (methyl)amino)-7H-pyrrolo[2,3-d]pyrimidine-7-carboxamide]",16.1 ± 2.7,66.9 ± 5.06,89.7 ± 0.57,34.7 ± 0.28,–,–,63.1 ± 1.23
